# Like-named read-outs stand apart in the source and are kept apart here. Square brackets hold non-standard residues; d marks the D form. Peptide text beside a SMILES is read from it. Orn = NCCC[C@H](N)C(=O)O
# Key:
# [1] = pH-solubility of polypeptide variants; format: physicochemical; conditions: read-out: pH-solubility, Concentration; for solubility thermodynamic at 3 min: a: precipitate, supernatant assayed; for solubility at 3 min: b: high viscous solution, aliquot assayed
# Description: (§1) Solubility study of variants was performed by adding variants powders into solvent in concentration of 5 mg/ml and then vortexing for 3 min. Observe the appearance of solutions in 5 min. Add more powder (˜5 mg/ml each time) and repeat vortex and observe until precipitation or gelation occurs.
# [2] = Appearance of solutions in solubility study of variants; format: physicochemical
# Description: as §1
SMILES,solubility thermodynamic at 3 min ([1]; pH 4.5) [mg/mL],solubility thermodynamic at 3 min ([1]; pH 5.5) [mg/mL],solubility thermodynamic at 3 min ([1]; pH 6.5) [mg/mL],solubility thermodynamic at 3 min ([1]; pH 7.5) [mg/mL],solubility thermodynamic at 3 min ([1]; pH 8.5) [mg/mL],"Appearance of solutions ([2]; pH 4.5, 5 mg/ml)","Appearance of solutions ([2]; pH 4.5, 10 mg/ml)","Appearance of solutions ([2]; pH 4.5, 15 mg/ml)","Appearance of solutions ([2]; pH 4.5, 20 mg/ml)","Appearance of solutions ([2]; pH 4.5, 25 mg/ml)","Appearance of solutions ([2]; pH 7.5, 5 mg/ml)","Appearance of solutions ([2]; pH 7.5, 10 mg/ml)","Appearance of solutions ([2]; pH 8.5, 5 mg/ml)","Appearance of solutions ([2]; pH 8.5, 10 mg/ml)",solubility at 3 min ([1]; pH 4.5) [mg/mL],"Appearance of solutions ([2]; pH 4.5, 40 mg/ml)","Appearance of solutions ([2]; pH 7.5, 15 mg/ml)","Appearance of solutions ([2]; pH 7.5, 20 mg/ml)","Appearance of solutions ([2]; pH 8.5, 15 mg/ml)","Appearance of solutions ([2]; pH 8.5, 20 mg/ml)",further results
CC(C)[C@H](NC(=O)[C@@H](NC(=O)[C@H](Cc1ccccc1)NC(=O)[C@@H](NC(=O)[C@@H](NC(=O)[C@H](Cc1ccccc1)NC(=O)[C@H](CO)NC(=O)[C@H](C)NC(=O)[C@@H](N)CCCCN)[C@@H](C)O)[C@@H](C)O)[C@@H](C)O)C(=O)N[C@H](C(=O)N[C@@H](CCCCN)C(=O)NCC(=O)N[C@@H](CO)C(=O)O)[C@@H](C)O [SEQ ID NO.4] (H-KASFTTFTVTKGS-OH),25.4 ± 0.8,4 ± 0.2,5.9 ± 0.4,16.7 ± 0.5,10.8 ± 1.1,Clear,Clear,Clear,Clear,Clear,Clear,Clear,Clear,Clear,,,,,,,
CC(C)[C@H](NC(=O)[C@@H](NC(=O)[C@H](Cc1ccccc1)NC(=O)[C@@H](NC(=O)[C@@H](NC(=O)[C@H](Cc1ccccc1)NC(=O)[C@H](CO)NC(=O)[C@H](C)NC(=O)[C@H](CCCCN)NC(=O)CNC(=O)[C@H](CCC(=O)O)NC(=O)[C@@H](C)NC(=O)[C@@H](C)N)[C@@H](C)O)[C@@H](C)O)[C@@H](C)O)C(=O)N[C@H](C(=O)N[C@@H](CCCCN)C(=O)NCC(=O)N[C@@H](CO)C(=O)N[C@H](C)C(=O)N[C@H](C)C(N)=O)[C@@H](C)O [SEQ ID NO.7] (H-[dA][dA]EGKASFTTFTVTKGS[dA][dA]-NH2),,22.3 ± 0.1,,,,Clear,Clear,Clear,Clear,Clear,Clear,Clear,Clear,Clear,≥ 32,Gel,Clear,Clear,Clear,Clear,"solubility at 3 min ([1]; pH 6.5): ≥ 30.5 mg/mL; solubility at 3 min ([1]; pH 7.5): ≥ 35.3 mg/mL; solubility at 3 min ([1]; pH 8.5): ≥ 23.8 mg/mL; Appearance of solutions ([2]; pH 5.5, 5 mg/ml): Clear; Appearance of solutions ([2]; pH 5.5, 10 mg/ml): Clear; Appearance of solutions ([2]; pH 5.5, 15 mg/ml): Clear; Appearance of solutions ([2]; pH 7.5, 25 mg/ml): Clear; Appearance of solutions ([2]; pH 8.5, 25 mg/ml): Clear"
CC(=O)N[C@H](C)C(=O)N[C@H](C)C(=O)N[C@@H](CCC(=O)O)C(=O)NCC(=O)N[C@@H](CCCCN)C(=O)N[C@@H](C)C(=O)N[C@@H](CO)C(=O)N[C@@H](Cc1ccccc1)C(=O)N[C@H](C(=O)N[C@H](C(=O)N[C@@H](Cc1ccccc1)C(=O)N[C@H](C(=O)N[C@H](C(=O)N[C@H](C(=O)N[C@@H](CCCCN)C(=O)NCC(=O)N[C@@H](CO)C(=O)N[C@H](C)C(=O)N[C@H](C)C(N)=O)[C@@H](C)O)C(C)C)[C@@H](C)O)[C@@H](C)O)[C@@H](C)O [SEQ ID NO.8] (Ac-[dA][dA]EGKASFTTFTVTKGS[dA][dA]-NH2),,23.6 ± 0.6,27.3 ± 1.2,28.3 ± 2.2,20.6 ± 2.4,Clear,Clear,Clear,Clear,Gel,Clear,Clear,Clear,Clear,≥ 24.2,,Clear,,Clear,Clear,"Appearance of solutions ([2]; pH 5.5, 5 mg/ml): Clear"

# More lines, main results first:
solubility thermodynamic at 3 min ([1]; pH 4.5) [mg/mL],solubility thermodynamic at 3 min ([1]; pH 5.5) [mg/mL],solubility thermodynamic at 3 min ([1]; pH 6.5) [mg/mL],solubility thermodynamic at 3 min ([1]; pH 7.5) [mg/mL],solubility thermodynamic at 3 min ([1]; pH 8.5) [mg/mL],"Appearance of solutions ([2]; pH 4.5, 5 mg/ml)","Appearance of solutions ([2]; pH 4.5, 10 mg/ml)","Appearance of solutions ([2]; pH 4.5, 15 mg/ml)","Appearance of solutions ([2]; pH 4.5, 20 mg/ml)","Appearance of solutions ([2]; pH 4.5, 25 mg/ml)","Appearance of solutions ([2]; pH 7.5, 5 mg/ml)","Appearance of solutions ([2]; pH 7.5, 10 mg/ml)","Appearance of solutions ([2]; pH 8.5, 5 mg/ml)","Appearance of solutions ([2]; pH 8.5, 10 mg/ml)",solubility at 3 min ([1]; pH 4.5) [mg/mL],"Appearance of solutions ([2]; pH 4.5, 40 mg/ml)","Appearance of solutions ([2]; pH 7.5, 15 mg/ml)","Appearance of solutions ([2]; pH 7.5, 20 mg/ml)","Appearance of solutions ([2]; pH 8.5, 15 mg/ml)","Appearance of solutions ([2]; pH 8.5, 20 mg/ml)",SMILES,further results
33.9 ± 0.9,3.6 ± 0.8,5.5 ± 0.7,19.1 ± 0.1,14.6 ± 1.6,Clear,Clear,Clear,Clear,Clear,Clear,Clear,Clear,Clear,,,Clear,Clear,Clear,,"CC(C)[C@H](NC(=O)[C@@H](NC(=O)[C@H](Cc1ccccc1)NC(=O)[C@@H](NC(=O)[C@@H](NC(=O)[C@H](Cc1ccccc1)NC(=O)[C@H](CO)NC(=O)[C@H](C)NC(=O)[C@@H](N)CCCN)[C@@H](C)O)[C@@H](C)O)[C@@H](C)O)C(=O)N[C@H](C(=O)N[C@@H](CCCN)C(=O)N[C@@H](CO)C(N)=O)[C@@H](C)O [SEQ ID NO.10, OASFTTFTVTOS-NH2] (H-[Orn]ASFTTFTVT[Orn]S-NH2)",
0.62 ± 0.04,0.14 ± 0.02,0.26 ± 0.07,0.25 ± 0.03,0.17 ± 0.04,,,,,,,,,,,,,,,,CC[C@H](C)[C@H](NC(=O)CNC(=O)[C@@H](N)CC(=O)O)C(=O)N[C@@H](Cc1c[nH]c2ccccc12)C(=O)N[C@@H](CCCCN)C(=O)N[C@@H](C)C(=O)N[C@@H](CO)C(=O)N[C@@H](Cc1ccccc1)C(N)=O [SEQ ID NO.21] (H-DGIWKASF-NH2),
57.2 ± 9.1,2.98 ± 0.1,3.49 ± 0.6,61.5 ± 1.7,29.1 ± 3.5,Clear,Clear,Clear,Clear,Clear,Clear,Clear,Clear,Clear,,Clear,Clear,Clear,Clear,Clear,CC(C)[C@H](N)C(=O)N[C@H](C(=O)N[C@@H](CCCCN)C(=O)N[C@@H](Cc1ccc(O)cc1)C(=O)N[C@@H](Cc1c[nH]c2ccccc12)C(=O)N[C@@H](Cc1ccccc1)C(=O)N[C@@H](Cc1ccc(O)cc1)C(=O)N[C@@H](CCCNC(=N)N)C(N)=O)[C@@H](C)O [SEQ ID NO.22] (H-VTKYWFYR-NH2),"Appearance of solutions ([2]; pH 4.5, 30 mg/ml): Clear; Appearance of solutions ([2]; pH 4.5, 35 mg/ml): Clear; Appearance of solutions ([2]; pH 4.5, 45 mg/ml): Clear; Appearance of solutions ([2]; pH 4.5, 50 mg/ml): Clear; Appearance of solutions ([2]; pH 4.5, 55 mg/ml): Clear; Appearance of solutions ([2]; pH 4.5, 60 mg/ml): Clear; Appearance of solutions ([2]; pH 7.5, 25 mg/ml): Clear; Appearance of solutions ([2]; pH 7.5, 30 mg/ml): Clear; Appearance of solutions ([2]; pH 7.5, 35 mg/ml): Clear; Appearance of solutions ([2]; pH 7.5, 40 mg/ml): Clear; Appearance of solutions ([2]; pH 7.5, 45 mg/ml): Clear; Appearance of solutions ([2]; pH 7.5, 50 mg/ml): Clear; Appearance of solutions ([2]; pH 7.5, 55 mg/ml): Clear; Appearance of solutions ([2]; pH 7.5, 60 mg/ml): Clear; Appearance of solutions ([2]; pH 7.5, 65 mg/ml): Turbid"

# Reference: patent US12280088B2, “Dry powder formulation of caveolin-1 peptides and methods of use thereof” (BOARD OF REGENTS, THE UNIVERSITY OF TEXAS SYSTEM, priority 2018, dated 2025)
